US6410581B1, “Disubstituted biphenyloxazolines” (Bayer Aktiengesellschaft, priority 1997, dated 2002)
Blank lines part the entries; values can stand above or below the compound they belong to.

Legend:
[1] = test system: larvae of the mustard beetle (Phaedon cochleariae); test: Phaedon larvae test; assay type: in vivo; conditions: after 7 days
Method: (§1) Solvent: 7 parts by weight of dimethylformamide
(§2) Emulsifier: 1 part by weight of alkylaryl polyglycol ether
To produce a suitable preparation of active compound, 1 part of weight of active compound is mixed with the stated amount of solvent and the stated amount of emulsifier, and the concentrate is diluted with water to the desired concentration.
After the desired period of time, the kill in % is determined. 100% means that all the beetle larvae have been killed; 0% means that none of the beetle larvae have been killed.

[2] = log p, n-octanol/water partition coefficient by reverse phase HPLC (H2O/CH3CN); assay type: physicochemical; conditions: for chromatographic logP: n-octanol/water
[3] = test system: All larval stages of Lucilia cuprina (OP resistant); test: Test with fly larvae/development-inhibitory activity; assay type: in vivo; conditions: concentration 100 ppm
Method: Test with Fly Larvae/development-inhibitory Activity
Test animals: All larval stages of Lucilia cuprina (OP resistant) [pupae and adults (without contact with the active compound)]
35 parts by weight of ethylene glycol monomethyl ether
35 parts by weight of nonylphenol polyglycol ether
To prepare a suitable formulation, 3 parts by weight of active compound are mixed with 7 parts of the abovementioned solvent-emulsifier mixture, and the resulting emulsion concentrate is diluted with water to the concentration desired in each case.
For each concentration, 30 to 50 larvae are transferred to horse meat (1 cm^3) located in glass tubes, and 500 μl of the test dilution are pipetted onto the meat. The glass tubes are placed into plastic beakers whose bottom is covered with sea sand and kept in a controlled-environment cabinet (26° C. ±1.5° C., 70% ±10% relative humidity). Larvicidal activity is checked after 24 hours and 48 hours. After the larvae have left (about 72 h), the glass tubes are removed and perforated plastic lids are placed on the beakers. After 1½ times the development period (hatching of the control flies), the hatched flies and the pupae/puparia are counted.
The criterion for the activity is the death of the treated larvae after 48 h (larvicidal effect), or inhibition of adults hatching from the pupae or inhibition of pupation. […]

[4] = test system: greenhouse red spider mite (Tetranychus urticae); test: Tetranychus test (OP resistant/dip treatment); assay type: in vivo; conditions: active compound concentration 0.01%, after 7 days
Method: Tetranychus Test (OP Resistant/Dip Treatment)
Solvent: 3 parts by weight of dimethylformamide
as §2
To produce a suitable preparation of active compound, 1 part by weight of active compound is mixed with the stated amount of solvent and the stated amount of emulsifier, and the concentrate is diluted to the desired concentration using emulsifier-containing water.
Bean plants (Phaseolus vulgaris) which are heavily infested by all stages of the greenhouse red spider mite (Tetranychus urticae) are dipped into an active compound preparation of the desired concentration.
After the desired period of time, the kill in % is determined. 100% means that all the spider mites have been killed; 0% means that none of the spider mites have been killed.

[5] = test system: caterpillars of the owlet moth (Spodoptera frugiperda); test: Spodoptera test; assay type: in vivo; conditions: active compound concentration 0.1%, after 7 days
Method: as §1, §2
(§3) To produce a suitable preparation of active compound, 1 part by weight of active compound is mixed with the stated amount of solvent and the stated amount of emulsifier, and the concentrate is diluted with water to the desired concentration.
Cabbage leaves (Brassica oleracea) are treated by being dipped into the active compound preparation of the desired concentration and populated with caterpillars of the owlet moth (Spodoptera frugiperda) while the leaves are still moist.
(§4) After the desired period of time, the kill in % is determined. 100% means that all the caterpillars have been killed; 0% means that none of the caterpillars have been killed.

[6] = test system: caterpillars of the army worm (Spodoptera exigua); test: Spodoptera exigua test; assay type: in vivo; conditions: active compound concentration 0.1%, after 6 days
Method: as §1, §2, §3
Cabbage leaves (Brassica oleracea) are treated by being dipped into the active compound preparation of the desired concentration and populated with caterpillars of the army worm (Spodoptera exigua) while the leaves are still moist.
After the desired period of time, the activity in % is determined. 100% means that all the caterpillars have been killed; 0% means that none of the caterpillars have been killed.

[7] = test system: caterpillars of the cotton bollworm (Heliothis armigera); test: Heliothis armigera test; assay type: in vivo; conditions: active compound concentration 0.1%, in 6 days
Method: as §1, §2
To produce a suitable preparation of active compound, 1 part by weight of active compound is mixed with the stated amounts of solvent and emulsifier, and the concentrate is diluted with water to the desired concentration.
Soya bean shoots (Glycine max) are treated by being dipped into the active compound preparation of the desired concentration and populated with caterpillars of the cotton bollworm (Heliothis armigera) while the leaves are still moist.
as §4

[8] = test system: caterpillars of the diamond back moth (Plutella xylostella); test: Plutella test; assay type: in vivo; conditions: active compound concentration 0.1%, after 6 days
Method: as §1, §2, §3
Cabbage leaves (Brassica oleracea) are treated by being dipped into the active compound preparation of the desired concentration and populated with caterpillars of the diamond back moth (Plutella xylostella) while the leaves are still moist.
as §4

[9] = test system: green rice leaf hoppers (Nephotettix cincticeps); test: Nephotettix test; assay type: in vivo; conditions: active compound concentration 1%, after 6 days
Method: as §1, §2, §3
Rice seedlings (Oryza sativa) are treated by being dipped into the active compound preparation of the desired concentration and populated with green rice leaf hoppers (Nephotettix cincticeps) while the seedlings are still moist.
After the desired period of time, the kill in % is determined. 100% means that all the leaf hoppers have been killed; 0% means that none of the leaf hoppers have been killed.

[10] = active compound concentration 0.01%
[11] = active compound concentration 0.1%

melting point: 60 to 62 °C
Compound: CCCc1cc(-c2ccc(C3COC(c4c(F)cccc4F)=N3)cc2)ccc1OC(C)C (stereo not shown) [Example I-2, 2-(2,6-Difluorophenyl)-4-(4-(4-propyl-2-oxy)-3-n-propylphenyl)phenyl-2-oxazoline]
kill in % [1, 10]: 100%

Compound: CC(C)Oc1ccc(-c2ccc(C3COC(c4c(F)cccc4F)=N3)cc2)cc1Cl (stereo not shown) [Example I-19]
log p ([2]; pH 7.5): log p (pH 7.5): 4.96
development-inhibitory activity [3]: 100%
kill in % [1, 10]: 100%

Compound: CC(C)(C)c1ccc(COc2ccc(-c3ccc(C4COC(c5c(F)cccc5F)=N4)cc3)cc2Cl)cc1 (stereo not shown) [Example I-22]
development-inhibitory activity [3]: 100%

Compound: CC(C)Oc1ccc(-c2ccc(C3COC(c4ccccc4Cl)=N3)cc2)cc1Cl (stereo not shown) [Example I-30]
log p ([2]; pH 7.5): log p (pH 7.5): 5.37
kill in % [1, 10]: 100%

log p ([2]; pH 7.5): log p: 6.02
Compound: C=CCc1cc(-c2ccc(C3COC(c4ccccc4Br)=N3)cc2)ccc1OC(C)C (stereo not shown) [Example I-291]

log p ([2]; pH 7.5): log p: 5.66
Compound: C=CCOc1ccc(-c2ccc(C3COC(c4ccccc4Br)=N3)cc2)cc1CC=C (stereo not shown) [Example I-293]

log p ([2]; pH 7.5): log p: 5.42
Compound: CC(C)Oc1ccc(-c2ccc(C3COC(c4ccccc4Br)=N3)cc2)cc1Cl (stereo not shown) [Example I-302]

log p ([2]; pH 7.5): log p: 5.13
Compound: C=CCOc1ccc(-c2ccc(C3COC(c4ccccc4Br)=N3)cc2)cc1Cl (stereo not shown) [Example I-304]

chromatographic logP ([2]; pH 7.5): 6.44
Compound: C=CCOc1ccc(-c2ccc(C3COC(c4ccccc4C)=N3)cc2)cc1CCC (stereo not shown) [Example I-314]

Compound: CC(C)Oc1c(Cl)cc(-c2ccc(C3COC(c4c(F)cccc4F)=N3)cc2)cc1Cl (stereo not shown) [Example I-342, 2-(2,6-Difluorophenyl)-4-(4-(4-(propyl-2-oxy)-3,5-dichlorophenyl)phenyl)-4,5-dihydro-oxazoline]
kill in % [4]: 100%
log p ([2]; pH 7.5): 5.65
kill in % [5]: 100%
kill in % [6]: 100%
kill in % [7]: 100%
kill in % [8]: 100%
kill in % [1, 11]: 100%

Compound: C=CCOc1c(Cl)cc(-c2ccc(C3COC(c4c(F)cccc4F)=N3)cc2)cc1Cl (stereo not shown) [Example I-344]
kill in % [4]: 100%
kill in % [5]: 100%
kill in % [9]: 100%
kill in % [1, 11]: 100%

chromatographic logP ([2]; pH 7.5): 3.77
Compound: CCCc1cc(-c2ccc(C3COC(c4c(F)cccc4F)=N3)cc2)ccc1O (stereo not shown) [II-1, 2-(2,6-Difluorophenyl)-4-(4-(4-hydroxy-3-n-propylphenyl)phenyl)-2-oxazoline]

log p ([2]; pH 7.5): log p: 3.83
Compound: C=CCc1cc(-c2ccc(C3COC(c4c(F)cccc4F)=N3)cc2)cc(C)c1O (stereo not shown) [II-12]

log p ([2]; pH 7.5): log p: 4.75
Compound: C=CCc1cc(-c2ccc(C3COC(c4ccccc4C)=N3)cc2)cc(Cl)c1O (stereo not shown) [II-14]

log p ([2]; pH 7.5): log p: 4.14
Compound: C=CCc1cc(-c2ccc(C3COC(c4ccccc4Cl)=N3)cc2)cc(C)c1O (stereo not shown) [II-19]

log p ([2]; pH 7.5): log p: 4.42
Compound: C=CCc1cc(-c2ccc(C3COC(c4ccccc4Br)=N3)cc2)cc(Cl)c1O (stereo not shown) [II-21]

log p ([2]; pH 7.5): log p: 3.42
Compound: CCc1cc(-c2ccc(C3COC(c4c(F)cccc4F)=N3)cc2)ccc1O (stereo not shown) [II-24]

Compound: CCCc1cc(-c2ccc(C(CCl)NC(=O)c3c(F)cccc3F)cc2)ccc1OC(C)=O (stereo not shown) [VI-1, 2,6-Difluoro-N-[2-chloro-1-(4-(4-acetoxy-3-n-propylphenyl)phenyl)ethyl]-benzamide]
chromatographic logP ([2]; pH 2.3): 3.92
